# From patent US20090176817A1, “Method of Treatment of Diarrhea-Predominant Irritable Bowel Syndrome in a Subject” (priority 2005, published 2009)
# Key:
# clinical [1] = format: in vitro ADME; settings: both sexes, human, serum, % free in serum
# Experimental: Steady state serum samples for measurement of cilansetron protein binding were collected at predose, and 1 and 1.5 hours postdose on Day 6.
# clinical [2] = settings: human, in vivo
# Experimental: Two randomized, double-blind, placebo controlled, balanced incomplete block design, crossover studies evaluated the single- and multiple-dose pharmacokinetics of oral cilansetron over a 8 mg to 32 mg dose range. In both studies, subjects were randomized to receive two of three treatments during 2 treatment periods. In one study (12 male and 13 female subjects, aged 23 to 36 years), subjects received 8 mg cilansetron, 16 mg cilansetron, or placebo, while in another study (12 males and 13 females, aged 23 to 41 years), subjects received 16 mg cilansetron, 32 mg cilansetron, or placebo. During each treatment period, subjects received a single dose of their assigned treatment on the first day, followed by a 3-day washout, after which they received the same treatment TID for 5 days.
# There was a 5-6 day washout period between treatment periods. Doses on the mornings of pharmacokinetic days were administered under fasted conditions. Serial blood sampling and urine collection was performed up to 12 hours following morning dosing on the first day (single dose) and on the last multiple dosing day of each treatment period, and cilansetron pharmacokinetic parameters were evaluated.
# In two randomized, double-blind, placebo controlled, balanced incomplete block design, crossover studies evaluating the single- and multiple-dose pharmacokinetics of oral cilansetron over a 8 mg to 32 mg dose range, subjects were randomized to receive two of three treatments during 2 treatment periods. In Study S.241.1.101; (12 male and 13 female subjects, aged 23 to 36 years), subjects received 8 mg cilansetron, 16 mg cilansetron, or placebo, while in Study S.24 1.1.102; (12 males and 13 females, aged 23 to 41 years), subjects received 16 mg cilansetron, 32 mg cilansetron, or placebo. During each treatment period, subjects received a single dose of their assigned treatment on the first day, followed by a 3-day washout, after which they received the same treatment TID for 5 days. There was a 5-6 day washout period between treatment periods. Doses on the mornings of pharmacokinetic days were administered under fasted conditions. Serial blood sampling and urine collection was performed up to 12 hours following morning dosing on the first day (single dose) and on the last multiple dosing day of each treatment period, and cilansetron pharmacokinetic parameters were evaluated.
compound,measurement,setting,value
"Cc1nccn1C[C@H]1CCc2c(c3cccc4c3n2CCC4)C1=O [Cilansetron, (R)-(−)-4,5,6,8,9,10-hexahydro-10-[(2-methyl-1H-imidazol-1-yl)methyl]-11H-pyrido-[3,2,1-jk]-carbazol-11-one]",fraction unbound,clinical [1],0.055
same,Tmax,clinical [2]; both,1 h
same,Tmax,"clinical [2]; both, 8 mg",1 h
same,AUC,"clinical [2]; both, 8 mg",112 ng·h/mL
same,Cmax,"clinical [2]; both, 8 mg",43.3 ng/mL
same,half-life,"clinical [2]; both, 8 mg, T½",86.4 min
same,half-life,"clinical [2]; both, 16 mg, T½",78 min
same,half-life,"clinical [2]; both, Mean half-life",72 to 84 min
same,Tmax,"clinical [2]; female, 8 mg",1 h
same,AUC,"clinical [2]; female, 8 mg",104 ng·h/mL
same,Cmax,"clinical [2]; female, 8 mg",43.2 ng/mL
same,half-life,"clinical [2]; female, 8 mg, T½",84.6 min
same,Tmax,"clinical [2]; female, po, 8 mg",1 h
same,AUC,"clinical [2]; female, po, 8 mg",138 ng·h/mL
same,Cmax,"clinical [2]; female, po, 8 mg",52.2 ng/mL
same,half-life,"clinical [2]; female, po, 8 mg, T½",87 min
same,Tmax,"clinical [2]; female, po, 16 mg",1 h
same,Tmax,"clinical [2]; male, 8 mg",1 h
same,AUC,"clinical [2]; male, 8 mg",74.5 ng·h/mL
same,Cmax,"clinical [2]; male, 8 mg",35.8 ng/mL
same,half-life,"clinical [2]; male, 8 mg, T½",73.2 min
same,Tmax,"clinical [2]; male, po, 8 mg",1 h
same,AUC,"clinical [2]; male, po, 8 mg",89.9 ng·h/mL
same,Cmax,"clinical [2]; male, po, 8 mg",35.5 ng/mL
same,half-life,"clinical [2]; male, po, 8 mg, T½",86.4 min
same,Tmax,"clinical [2]; male, po, 16 mg",1 h
